Source: US20220162215A1, “COMPOSITIONS AND METHODS OF USING THE SAME FOR TREATMENT OF NEURODEGENERATIVE AND MITOCHONDRIAL DISEASE” (MITOKININ, INC., priority 2019, published 2022)
Read-outs that look alike come from different tables or passages of the source.

What was measured:
[1] = In vivo summary, pharmacokinetics, mouse
Description: Referring to Tables 8A-C below, an in vivo summary of EP-0035985 IV at 1 mg/kg (8A), PO 10 mg/kg (8B), and a tissue distribution, mouse (8C) is shown below.

PINK1 [2] = molecular target: T1, PINK1 (Homo sapiens, UniProt Q9BXM7); assay: pS65 Ubiquitin ELISA assay (HeLa-MKYP WT or PINK1 KO); type: cell-based; conditions: PINK1wt vs PINK1ko cells, FIG. 17A
T1 construct: for each cell type tested (HeLa-MKYP WT or PINK1^KO); endogenous in cells; host or cells: HeLa-MKYP (WT) / HeLa cells
Description: HeLa-MKYP cells were plated at 10,000 cells/well in 96-well plates along with compounds at various concentrations. Following 16 hours of incubation, cells were treated with 1 μM FCCP/oligomycin (F/O) along with compounds at various doses for 2-3 hours. Appropriate controls were included on each plate to obtain a maximum signal from treatment with 10 μM F/O or, and a minimum signal from cells treated with no F/O with DMSO for each cell type tested (HeLa-MKYP WT or PINK1^KO). At the desired timepoint, media was removed and cells were frozen prior to lysis. Cells lysates were denatured by boiling, prior to analysis by a custom ELISA assay using commercially available antibodies (using anti-phospho-ubiquitin as a capturing antibody, and anti-total ubiquitin as a detection antibody). Purified pS65 ubiquitin was used to generate a standard curve and determine timing for ELISA reaction development.

PINK1 [3] = molecular target: T1, PINK1; assay: PINK1 phosphorylation in HeLa cells (PhosTag gel electrophoresis); type: cell-based
mitotoxicity = assay: Mitotox safety margin (therapeutic window); type: cell-based
GDF15 = assay: Cisplatin mouse model of mitochondrial dysfunction (GDF15 qPCR, kidney); type: in vivo, mice; conditions: oral dosing; i.p. cisplatin; FIG. 34
From the text: Cisplatin is a chemotherapeutic agent reported in the literature to induce mitochondrial damage (see: Yang, Z., et al. “Cisplatin Preferentially Binds Mitochondrial DNA and Voltage-Dependent Anion Channel Protein in the Mitochondrial Membrane of Head and Neck Squamous Cell Carcinoma: Possible Role in Apoptosis.” Clinical Cancer Research 12, no. 19 (2006), 5817-5825). Growth and Differentiation Factor 15 (GDF15) is an established biomarker of mitochondrial disease and certain neurodegenerative diseases (see: Montero, R, et al. “GDF-15 Is Elevated in Children with Mitochondrial Diseases and Is Induced by Mitochondrial Dysfunction.” PLOS ONE 11, no. 2 (2016); Nohara, S, et al. “GDF-15, a mitochondrial disease biomarker, is associated with the severity of multiple sclerosis”, Journal of Neurological Sciences, Vol 405 (2019)). Briefly, mice approximately 10 weeks in age were challenged with a single intraperitoneal dose of cisplatin (10 mg/kg), then treated daily via oral gavage with either compound 35985 at various doses or vehicle control. On day 7, the animals were sacrificed. Kidneys were removed and homogenized. Following published methods, qPCR was performed on the kidney samples to determine expression levels of GDF15.

T1 sequence (Q9BXM7 78-581): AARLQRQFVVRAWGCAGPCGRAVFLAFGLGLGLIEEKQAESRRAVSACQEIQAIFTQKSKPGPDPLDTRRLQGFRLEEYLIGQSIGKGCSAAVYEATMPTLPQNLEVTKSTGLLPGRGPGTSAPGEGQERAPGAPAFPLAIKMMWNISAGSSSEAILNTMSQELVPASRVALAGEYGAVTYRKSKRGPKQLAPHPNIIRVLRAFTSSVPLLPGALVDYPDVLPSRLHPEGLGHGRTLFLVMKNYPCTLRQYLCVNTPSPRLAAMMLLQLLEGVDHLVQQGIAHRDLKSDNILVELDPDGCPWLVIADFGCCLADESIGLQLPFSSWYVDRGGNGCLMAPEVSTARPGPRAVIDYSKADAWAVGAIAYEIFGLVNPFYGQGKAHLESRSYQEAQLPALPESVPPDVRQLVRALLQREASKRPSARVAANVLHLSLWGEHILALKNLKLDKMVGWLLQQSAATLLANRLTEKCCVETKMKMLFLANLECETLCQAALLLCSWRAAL

## FC(F)(F)c1cc2c(NC3CCCc4ccccc43)ncnc2[nH]1 (centres unmarked) [Compound 15]
[1]; IV at 1 mg/kg, Table 8A
  AUCExtr: 1.1%
  AUClast: 481.3 ng·h/mL
  C0: 1569.0 ng/mL
  CL: 34.3 mL/min/kg
  MRTlnf: 0.7 h
  T1/2: 1.4 h
  Vss: 1.5 L/kg
  Vz: 4.0 L/kg
[1]; PO 10 mg/kg, Table 8B
  AUClast: 357.3 ng·h/mL
  AUClnf: 803.3 ng·h/mL
  MRTlnf: 17.4 h
  Vss: 2.5 L/kg
[1]; in vivo, IV at 1 mg/kg, Table 8A
  AUC: 487 ng·h/mL
[1]; in vivo, PO 10 mg/kg, Table 8B, read-out: C0
  C0: 0.5 ng/mL
PINK1 [2]
  pS65 Ub (PINK1 substrate phosphorylation): significant increase in pS65 Ub in PINK1^wt cells but not in PINK1^ko cell lines
PINK1 [3]; 0.5, 1 μM FCCP, FIG. 33C
  pS65 Ubiquitin: significant increase in pS65 Ubiquitin at 0.5, 1 μM FCCP
PINK1 [3]; HeLa cells, 2.8 μM compound and 0.5, 1.0, or 2.0 μM FCCP, FIG. 33A
  levels of PINK1phospho: significantly increases the levels of PINK1phospho
mitotoxicity; class of the Ratio
  Mitotox safety margin (Therapeutic window): ++++ (ratio 30<)
mitotoxicity; highest concentration with no observable mitotoxicity (μM) divided by the EC50 (μM) of the compound
  Ratio**: 40.02
GDF15
  expression of mitochondrial disease marker GDF15: reduces expression of mitochondrial disease marker GDF15
